The assay addresses T1, human PAH with the R408W mutation (Homo sapiens, UniProt P00439, R408W).
T1 construct: expressed in transfected cells
T1 sequence (P00439 1-452 R408W): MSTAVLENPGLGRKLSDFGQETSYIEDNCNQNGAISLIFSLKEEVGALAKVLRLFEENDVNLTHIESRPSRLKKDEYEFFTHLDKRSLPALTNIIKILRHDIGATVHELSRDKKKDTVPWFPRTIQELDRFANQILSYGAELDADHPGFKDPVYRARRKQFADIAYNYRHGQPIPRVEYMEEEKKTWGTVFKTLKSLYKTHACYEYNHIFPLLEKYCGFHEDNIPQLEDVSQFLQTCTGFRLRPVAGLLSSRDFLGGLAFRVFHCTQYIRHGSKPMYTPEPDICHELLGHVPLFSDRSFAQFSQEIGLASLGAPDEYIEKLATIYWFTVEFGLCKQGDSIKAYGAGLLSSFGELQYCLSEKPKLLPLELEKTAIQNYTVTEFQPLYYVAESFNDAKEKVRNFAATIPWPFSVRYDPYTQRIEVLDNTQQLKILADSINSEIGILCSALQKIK
Briefly: Cell Based Phenylalanine Flux Assay.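 Note: after compound treatment, cells received sepiapterin plus isotope-labelled Phenylalanine for 4 hours, then labelled Tyrosine in the medium was quantified, 10-point 2-fold dilution series run in duplicate.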 Conditions: A375 cells expressing human R408W PAH; 24 hrs compound incubation; 13C-Tyrosine by LC-MS; average where tested multiple times; read-out: AC50.

Each structure is given as a SMILES string.

One may read the AC50 as the concentration at which the activity in the assay is half-maximal. As for `COc1ccc(-c2nnc(C(=O)N3CCc4[nH]cnc4[C@H]3c3cc4c(C)cccn4n3)o2)nc1` [Example 817, (S)-(5-(5-methoxypyridin-2-yl)-1,3,4-oxadiazol-2-yl)(4-(4-methylpyrazolo[1,5-a]pyridin-2-yl)-6,7-dihydro-1H-imidazo[4,5-c]pyridin-5(4H)-yl)methanone], the AC50 was under 500 nM. As for `Cc1cccn2nc([C@H]3c4nc[nH]c4CCN3C(=O)c3nnc(-c4ncccc4F)o3)cc12` [Example 818, (R)-(5-(3-fluoropyridin-2-yl)-1,3,4-oxadiazol-2-yl)(4-(4-methylpyrazolo[1,5-a]pyridin-2-yl)-6,7-dihydro-1H-imidazo[4,5-c]pyridin-5(4H)-yl)methanone], the figure is over 5000 nM; as for `Cc1cccn2nc([C@@H]3c4nc[nH]c4CCN3C(=O)c3nnc(-c4ncccc4F)o3)cc12` [Example 819, (S)-(5-(3-fluoropyridin-2-yl)-1,3,4-oxadiazol-2-yl)(4-(4-methylpyrazolo[1,5-a]pyridin-2-yl)-6,7-dihydro-1H-imidazo[4,5-c]pyridin-5(4H)-yl)methanone], under 500 nM.

Turning to `Cc1cccn2nc([C@@H]3c4nc[nH]c4CCN3C(=O)c3nnc(-c4cnn(C(F)F)c4)o3)cc12` [Example 820, (S)-(5-(1-(difluoromethyl)-1H-pyrazol-4-yl)-1,3,4-oxadiazol-2-yl)(4-(4-methylpyrazolo[1,5-a]pyridin-2-yl)-6,7-dihydro-1H-imidazo[4,5-c]pyridin-5(4H)-yl)methanone], the AC50 was under 500 nM. As for `Cc1cccn2nc([C@H]3c4nc[nH]c4CCN3C(=O)c3nnc(-c4cnn(C(F)F)c4)o3)cc12` [Example 821, (R)-(5-(1-(difluoromethyl)-1H-pyrazol-4-yl)-1,3,4-oxadiazol-2-yl)(4-(4-methylpyrazolo[1,5-a]pyridin-2-yl)-6,7-dihydro-1H-imidazo[4,5-c]pyridin-5(4H)-yl)methanone], the figure is over 5000 nM; as for `Cc1cccn2nc([C@@H]3c4nc[nH]c4CCN3C(=O)c3nnc(-c4ccn(C(F)F)n4)o3)cc12` [Example 822, (S)-(5-(1-(difluoromethyl)-1H-pyrazol-3-yl)-1,3,4-oxadiazol-2-yl)(4-(4-methylpyrazolo[1,5-a]pyridin-2-yl)-6,7-dihydro-1H-imidazo[4,5-c]pyridin-5(4H)-yl)methanone], under 500 nM. For `Cc1cccn2nc([C@H]3c4nc[nH]c4CCN3C(=O)c3nnc(-c4ccn(C(F)F)n4)o3)cc12` [Example 823, (R)-(5-(1-(difluoromethyl)-1H-pyrazol-3-yl)-1,3,4-oxadiazol-2-yl)(4-(4-methylpyrazolo[1,5-a]pyridin-2-yl)-6,7-dihydro-1H-imidazo[4,5-c]pyridin-5(4H)-yl)methanone], the AC50 was in the range of 1000 to 5000 nM.

Take `O=C(c1nnc(-c2ccn(C(F)F)n2)o1)N1CCc2[nH]cnc2[C@@H]1c1cc2c(F)cccn2n1` [Example 824, (R)-(5-(1-(difluoromethyl)-1H-pyrazol-3-yl)-1,3,4-oxadiazol-2-yl)(4-(4-fluoropyrazolo[1,5-a]pyridin-2-yl)-6,7-dihydro-1H-imidazo[4,5-c]pyridin-5(4H)-yl)methanone]: the concentration at half-maximal activity (AC50) is over 5000 nM. As for `O=C(c1nnc(-c2ccn(C(F)F)n2)o1)N1CCc2[nH]cnc2[C@H]1c1cc2c(F)cccn2n1` [Example 825, (S)-(5-(1-(difluoromethyl)-1H-pyrazol-3-yl)-1,3,4-oxadiazol-2-yl)(4-(4-fluoropyrazolo[1,5-a]pyridin-2-yl)-6,7-dihydro-1H-imidazo[4,5-c]pyridin-5(4H)-yl)methanone], the figure is under 500 nM; as for `Cn1cc(-c2nnc(C(=O)N3CCc4[nH]cnc4[C@H]3c3cc4c(C(F)(F)F)cccn4n3)o2)cn1` [Example 828, (S)-(5-(1-methyl-1H-pyrazol-4-yl)-1,3,4-oxadiazol-2-yl)(4-(4-(trifluoromethyl)pyrazolo[1,5-a]pyridin-2-yl)-6,7-dihydro-1H-imidazo[4,5-c]pyridin-5(4H)-yl)methanone], under 500 nM; as for `Cn1cc(-c2nnc(C(=O)N3CCc4[nH]cnc4[C@@H]3c3cc4c(C(F)(F)F)cccn4n3)o2)cn1` [Example 829, (R)-(5-(1-methyl-1H-pyrazol-4-yl)-1,3,4-oxadiazol-2-yl)(4-(4-(trifluoromethyl)pyrazolo[1,5-a]pyridin-2-yl)-6,7-dihydro-1H-imidazo[4,5-c]pyridin-5(4H)-yl)methanone], over 5000 nM.

Take `O=C(c1nnc(-c2ccncc2)o1)N1CCc2[nH]cnc2[C@H]1c1cc2c(F)cccn2n1` [Example 830, (S)-(4-(4-fluoropyrazolo[1,5-a]pyridin-2-yl)-6,7-dihydro-1H-imidazo[4,5-c]pyridin-5(4H)-yl)(5-(pyridin-4-yl)-1,3,4-oxadiazol-2-yl)methanone]: the AC50 is under 500 nM.

As for `O=C(c1nnc(-c2ccncc2)o1)N1CCc2[nH]cnc2[C@@H]1c1cc2c(F)cccn2n1` [Example 831, (R)-(4-(4-fluoropyrazolo[1,5-a]pyridin-2-yl)-6,7-dihydro-1H-imidazo[4,5-c]pyridin-5(4H)-yl)(5-(pyridin-4-yl)-1,3,4-oxadiazol-2-yl)methanone], the AC50 lay in the range of 1000 to 5000 nM.

`O=C(c1nnc(-c2cnn(C3CCC3)c2)o1)N1CCc2[nH]cnc2[C@H]1c1cc2c(F)cccn2n1` [Example 832, (S)-(5-(1-cyclobutyl-1H-pyrazol-4-yl)-1,3,4-oxadiazol-2-yl)(4-(4-fluoropyrazolo[1,5-a]pyridin-2-yl)-6,7-dihydro-1H-imidazo[4,5-c]pyridin-5(4H)-yl)methanone]: the AC50 is under 500 nM. As for `O=C(c1nnc(-c2cnn(S(=O)(=O)C3CC3)c2)o1)N1CCc2[nH]cnc2[C@H]1c1cc2c(F)cccn2n1` [Example 834, (S)-(5-(1-(cyclopropylsulfonyl)-1H-pyrazol-4-yl)-1,3,4-oxadiazol-2-yl)(4-(4-fluoropyrazolo[1,5-a]pyridin-2-yl)-6,7-dihydro-1H-imidazo[4,5-c]pyridin-5(4H)-yl)methanone], the figure is 500 to 1000 nM; as for `O=C(c1nnc(-c2cnn(S(=O)(=O)C3CC3)c2)o1)N1CCc2[nH]cnc2[C@@H]1c1cc2c(F)cccn2n1` [Example 835, (R)-(5-(1-(cyclopropylsulfonyl)-1H-pyrazol-4-yl)-1,3,4-oxadiazol-2-yl)(4-(4-fluoropyrazolo[1,5-a]pyridin-2-yl)-6,7-dihydro-1H-imidazo[4,5-c]pyridin-5(4H)-yl)methanone], over 5000 nM; as for `Cc1cccn2nc([C@@H]3c4nc[nH]c4CCN3C(=O)c3ncnn3C)cc12` [Example 838, (S)-(1-methyl-1H-1,2,4-triazol-5-yl)(4-(4-methylpyrazolo[1,5-a]pyridin-2-yl)-6,7-dihydro-1H-imidazo[4,5-c]pyridin-5(4H)-yl)methanone], under 500 nM. As for `Cn1ncnc1C(=O)N1CCc2[nH]cnc2[C@H]1c1cc2c(F)cccn2n1` [Example 840, (S)-(4-(4-fluoropyrazolo[1,5-a]pyridin-2-yl)-6,7-dihydro-1H-imidazo[4,5-c]pyridin-5(4H)-yl)(1-methyl-1H-1,2,4-triazol-5-yl)methanone], the figure is 500 to 1000 nM; as for `Cn1ncnc1C(=O)N1CCc2[nH]cnc2[C@@H]1c1cc2c(F)cccn2n1` [Example 841, (R)-(4-(4-fluoropyrazolo[1,5-a]pyridin-2-yl)-6,7-dihydro-1H-imidazo[4,5-c]pyridin-5(4H)-yl)(1-methyl-1H-1,2,4-triazol-5-yl)methanone], 1000 to 5000 nM. As for `O=C(c1ccnn1C(F)(F)F)N1CCc2[nH]cnc2[C@H]1c1cc2c(F)cccn2n1` [Example 842, (S)-(4-(4-fluoropyrazolo[1,5-a]pyridin-2-yl)-6,7-dihydro-1H-imidazo[4,5-c]pyridin-5(4H)-yl)(1-(trifluoromethyl)-1H-pyrazol-5-yl)methanone], the figure is under 500 nM. As for `O=C(c1ccnn1C(F)(F)F)N1CCc2[nH]cnc2[C@@H]1c1cc2c(F)cccn2n1` [Example 843, (R)-(4-(4-fluoropyrazolo[1,5-a]pyridin-2-yl)-6,7-dihydro-1H-imidazo[4,5-c]pyridin-5(4H)-yl)(1-(trifluoromethyl)-1H-pyrazol-5-yl)methanone], the AC50 is 1000 to 5000 nM.

For `Cc1nn(C)cc1-c1nnc(C(=O)N2CCc3[nH]cnc3[C@H]2c2cc3c(C)cccn3n2)o1` [Example 844, (S)-(5-(1,3-dimethyl-1H-pyrazol-4-yl)-1,3,4-oxadiazol-2-yl)(4-(4-methylpyrazolo[1,5-a]pyridin-2-yl)-6,7-dihydro-1H-imidazo[4,5-c]pyridin-5(4H)-yl)methanone], the AC50 was under 500 nM. In the case of `Cc1nn(C)cc1-c1nnc(C(=O)N2CCc3[nH]cnc3[C@@H]2c2cc3c(C)cccn3n2)o1` [Example 845, (R)-(5-(1,3-dimethyl-1H-pyrazol-4-yl)-1,3,4-oxadiazol-2-yl)(4-(4-methylpyrazolo[1,5-a]pyridin-2-yl)-6,7-dihydro-1H-imidazo[4,5-c]pyridin-5(4H)-yl)methanone], the AC50 was over 5000 nM. Consider `Cc1nn(C)cc1-c1nnc(C(=O)N2CCc3[nH]cnc3[C@H]2c2cc3c(F)cccn3n2)o1` [Example 846, (S)-(5-(1,3-dimethyl-1H-pyrazol-4-yl)-1,3,4-oxadiazol-2-yl)(4-(4-fluoropyrazolo[1,5-a]pyridin-2-yl)-6,7-dihydro-1H-imidazo[4,5-c]pyridin-5(4H)-yl)methanone], for which the AC50 is under 500 nM.

For the origin of these results see patent US20230365592A1 (Agios Pharmaceuticals, Inc., priority 2022, published 2023).
